Earlier results, collected in US20040248925A1, “Use of 4-phenyl substituted tetrahydroisoquinolines in the treatment of pain, migraine and urinary incontinence” (priority 2002, published 2004).

Conditions: following treatment with imipramine; background statement

SMILES: CN(C)CCCN1c2ccccc2CCc2ccccc21 [imipramine, Imipramine]
- further patients in whom improvements can be seen: 15-20%
- patients in whom enuresis can be cured: over 50%
